# Like-named read-outs stand apart in the source and are kept apart here.
# Key:
# [1] = tested on: Abeta oligomer-induced membrane trafficking deficits in primary hippocampal neurons; assay: Membrane trafficking/exocytosis (MTT) assay; type: cell-based, rat
# Protocol: The methods used to generate the results were as follows in the Membrane Trafficking/Exocytosis (MTT) assay.
# Primary hippocampal neurons from E18 Sprague-Dawley rat embryos were plated at optimized concentrations in 384 well plates in NB media (Invitrogen). Neurons were maintained in cultures for 3 weeks, with twice weekly feeding of NB media with N2 supplement (Invitrogen).
# A test compound was added to cells at concentrations ranging from 100 uM to 0.001 nM followed by addition of vehicle or Abeta oligomer preparations (3 μM total Abeta protein concentration), and incubated for 1 to 24 hr at 37° C. in 5% CO2. MTT reagent (3-(4,5-dimethylthizaol-2-yl)-2,5diphenyl tetrazolium bromide) (Roche Molecular Biochemicals) was reconstituted in phosphate buffered saline to 5 mg/mL. 10 μl, of MTT labeling reagent is added to each well and incubated at 37° C. for 1 h, then imaged. Exocytosis was assessed by automated microscopy and image processing to quantify the amount of endocytosed and exocytosed formazan.
# Each assay plate was formatted so that compounds are tested with and without Abeta oligomer on each plate.
# [2] = Drug-like properties of known compounds (BBB, oxidative metabolism); details: (Oxidative substr.; Not BBB, Ox Sub.); first line given
# [3] = target: T1, sigma-2 receptor (Rattus norvegicus, UniProt Q5U3Y7); design: other: known prior art compounds, published studies; details: cited from earlier work
# T1 sequence (Q5U3Y7 1-176): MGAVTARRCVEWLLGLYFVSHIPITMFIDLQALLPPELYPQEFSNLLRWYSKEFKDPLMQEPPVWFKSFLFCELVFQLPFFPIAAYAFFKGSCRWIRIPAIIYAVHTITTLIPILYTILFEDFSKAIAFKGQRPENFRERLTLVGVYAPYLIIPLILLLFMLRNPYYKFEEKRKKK
# [4] = tested on: muscarinic M1-M4; details: cited from earlier work
# [5] = target: Sigma-1 receptors; details: cited from earlier work; for Ki: Table 11E, clinical compounds, first figure of S1/S2, read-out: Sigma Affinity (S1); for Sigma 1 (Type of Activity): known prior art compounds
# [6] = tested on: Na + ch2; details: cited from earlier work
# [7] = target: Sigma-2 receptors; details: cited from earlier work; for Ki: Table 11E, clinical compounds, second figure of S1/S2, read-out: Sigma Affinity (S2)
# [8] = target: NMDAR2B (Homo sapiens, UniProt Q13224); details: cited from earlier work
# [9] = list wraps over the rows below; first line given; cited from earlier work
# [10] = target: T2, Sigma-1 receptors (UniProt Q60492); details: cited from earlier work
# T2 construct: other: known prior art compounds, published studies
# [11] = target: Adrenergic transporter (Homo sapiens, UniProt P23975); details: cited from earlier work
# [12] = target: Dopamine transporter (Homo sapiens, UniProt Q01959); details: cited from earlier work
# [13] = target: serotonin transporter (Homo sapiens, UniProt P31645); details: cited from earlier work
# [14] = tested on: Abeta oligomer-induced synapse loss in primary hippocampal neurons; assay: Synapse loss assay; type: cell-based, rat
# Protocol: In this assay, Abeta oligomers were brought in contact with mature primary neurons in culture and their binding was determined by immunohistochemistry (anti-Abeta antibody) and quantified by image processing. The amount of Abeta in neuronal dendrites is assessed by counting the number of labeled puncta on the neuritis. […] This labeling is associated with synapses, co-localizing with the post-synaptic scaffold protein PSD-95 (Lacor et al., '04). […] The number of synapses can also be quantified in this assay by immunofluorochemistry. Similar procedures for binding assays can be found in the literature. […] Review.
# Primary hippocampal neuronal culture was established as in the membrane trafficking assay above. […] Pretreatment with compounds to be tested lasted for 1 hr and addition of Abeta oligomers or no oligomer (vehicle alone) in a final concentration of 70 ul was followed by incubation for an additional 23 hrs.
# The plates were then washed 3× with PBS for 5 min each. The plates were blocked at RT for 1 hr in 5% goat serum and 0.5% Triton X-100 in PBS. […] Primary antibodies were incubated overnight at 4° C. The plates were then washed 3× with PBS for 5 min each. […] Secondary antibodies were incubated at RT for 1 hr. The plates were washed once with PBS. DAPI (4′,6-diamidino-2-phenylindole, Invitrogen) was then applied at 0.03 ug/ul and incubated at RT for 5 min, then washed with PBS.
# [15] = tested on: alpha 1A, 1B; details: cited from earlier work
# [16] = tested on: 5-HT2A, B, C; details: cited from earlier work
# [17] = target: NMDAR2A (Homo sapiens, UniProt Q12879); details: cited from earlier work
# [18] = tested on: PCP; details: cited from earlier work
# [19] = tested on: SKOV-3 human ovarian cancer cell line; assay: MTS tumor cell viability assay; type: cell-based
# Protocol: The cytotoxicity of compounds shown below was determined using the CellTiter96 Aqueous One Solution Assay (Promega, Madison, Wis.). […] The plate was read at 490 nm in a Victor3 plate reader (PerkinElmer Life and Analytical Sciences, Shelton, Conn.). The EC^50 value, defined as the concentration of the sigma ligand required to inhibit cell viability by 50% relative to untreated cells, was determined from the dose response curve for each cell line.
# [20] = tested on: caspase-3 in neuronal cultures; assay: Caspase-3 activity in neurons; type: cell-based
# [21] = tested on: caspase-3 in SKOV-3 human ovarian cancer cells; assay: Caspase-3 activity in tumor cells; type: cell-based
# [22] = tested on: neuronal cultures
# [23] = tested on: K+ ch; details: b58; cited from earlier work
# [24] = Table 11C, read-out: S1 binding Ki
# [25] = Table 11D, read-out: Sigma-1 Receptor Ki
# [26] = known prior art compounds, published studies, read-out: Sigma 1 Binding Ki
# [27] = Table 11C, known prior art compounds, read-out: Inhibition Abeta oligomer-induced Membrane Trafficking EC50
# [28] = Table 11D, read-out: Membrane trafficking IC50
# [29] = Table 11C, read-out: S2 binding Ki
# [30] = Table 11D, read-out: Sigma-2 Receptor Ki
# [31] = known prior art compounds, published studies, read-out: Sigma 2 Binding Ki
# [32] = Rattus norvegicus, Hippocampal neuron, Table 11C, known prior art compounds, read-out: Inhibition Abeta oligomer-induced Membrane Trafficking EC50
# [33] = read-out: S2 binding Ki, Table 11C
# NMDAR2B, sequence (Q13224 27-1484, species assumed, other chains not shown): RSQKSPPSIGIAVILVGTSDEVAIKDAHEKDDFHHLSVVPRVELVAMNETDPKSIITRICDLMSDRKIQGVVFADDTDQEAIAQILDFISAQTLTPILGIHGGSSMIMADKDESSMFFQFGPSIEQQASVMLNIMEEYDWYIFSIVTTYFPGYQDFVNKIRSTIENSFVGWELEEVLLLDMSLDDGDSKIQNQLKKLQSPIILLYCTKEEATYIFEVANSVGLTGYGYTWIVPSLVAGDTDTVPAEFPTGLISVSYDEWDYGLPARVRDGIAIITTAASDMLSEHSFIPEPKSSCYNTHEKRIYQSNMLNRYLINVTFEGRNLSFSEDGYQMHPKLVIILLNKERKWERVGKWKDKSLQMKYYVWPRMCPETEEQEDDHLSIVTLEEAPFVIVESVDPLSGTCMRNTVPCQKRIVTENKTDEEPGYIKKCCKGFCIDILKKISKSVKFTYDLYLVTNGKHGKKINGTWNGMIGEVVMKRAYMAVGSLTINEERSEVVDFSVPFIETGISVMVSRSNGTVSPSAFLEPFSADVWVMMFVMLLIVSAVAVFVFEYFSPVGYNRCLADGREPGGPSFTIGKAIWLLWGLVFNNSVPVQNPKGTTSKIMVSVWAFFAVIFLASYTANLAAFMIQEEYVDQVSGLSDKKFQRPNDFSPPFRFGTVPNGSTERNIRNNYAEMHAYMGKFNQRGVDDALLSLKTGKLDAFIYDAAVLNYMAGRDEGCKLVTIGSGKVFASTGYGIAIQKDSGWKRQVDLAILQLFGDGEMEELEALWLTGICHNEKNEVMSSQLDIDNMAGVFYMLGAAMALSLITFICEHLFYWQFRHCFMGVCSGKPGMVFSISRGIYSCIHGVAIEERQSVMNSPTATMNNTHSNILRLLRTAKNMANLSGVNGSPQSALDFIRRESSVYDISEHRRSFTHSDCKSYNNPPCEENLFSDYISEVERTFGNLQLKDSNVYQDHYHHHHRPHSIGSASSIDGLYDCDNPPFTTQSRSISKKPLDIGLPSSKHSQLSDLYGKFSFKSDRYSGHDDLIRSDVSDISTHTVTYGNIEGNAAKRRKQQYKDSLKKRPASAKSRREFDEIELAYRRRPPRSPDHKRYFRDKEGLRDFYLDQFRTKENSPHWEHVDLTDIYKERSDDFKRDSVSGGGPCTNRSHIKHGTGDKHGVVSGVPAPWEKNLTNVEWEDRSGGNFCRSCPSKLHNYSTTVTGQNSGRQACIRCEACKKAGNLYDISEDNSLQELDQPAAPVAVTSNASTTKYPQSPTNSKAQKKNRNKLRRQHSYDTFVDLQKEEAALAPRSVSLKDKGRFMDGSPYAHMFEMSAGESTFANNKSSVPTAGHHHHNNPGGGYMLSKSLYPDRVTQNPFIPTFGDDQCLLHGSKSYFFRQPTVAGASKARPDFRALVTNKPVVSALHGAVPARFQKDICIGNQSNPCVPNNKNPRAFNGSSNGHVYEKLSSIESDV
# serotonin transporter, sequence (P31645 whole entry): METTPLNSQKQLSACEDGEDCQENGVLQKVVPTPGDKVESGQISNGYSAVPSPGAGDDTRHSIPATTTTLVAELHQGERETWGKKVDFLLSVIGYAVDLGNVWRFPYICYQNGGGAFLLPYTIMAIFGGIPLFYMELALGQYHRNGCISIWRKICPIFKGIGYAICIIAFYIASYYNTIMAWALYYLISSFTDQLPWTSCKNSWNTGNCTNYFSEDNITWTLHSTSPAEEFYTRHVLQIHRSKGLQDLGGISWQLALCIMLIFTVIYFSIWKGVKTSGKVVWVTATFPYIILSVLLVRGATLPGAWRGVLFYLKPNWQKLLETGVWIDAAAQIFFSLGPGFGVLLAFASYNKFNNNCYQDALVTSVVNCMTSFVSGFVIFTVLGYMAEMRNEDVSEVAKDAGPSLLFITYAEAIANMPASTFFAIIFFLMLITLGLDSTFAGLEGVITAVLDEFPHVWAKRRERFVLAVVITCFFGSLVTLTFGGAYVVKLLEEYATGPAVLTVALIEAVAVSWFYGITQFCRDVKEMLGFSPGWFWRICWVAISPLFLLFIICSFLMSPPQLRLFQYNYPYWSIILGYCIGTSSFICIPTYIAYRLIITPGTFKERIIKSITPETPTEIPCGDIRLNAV
# Adrenergic transporter, sequence (P23975 whole entry): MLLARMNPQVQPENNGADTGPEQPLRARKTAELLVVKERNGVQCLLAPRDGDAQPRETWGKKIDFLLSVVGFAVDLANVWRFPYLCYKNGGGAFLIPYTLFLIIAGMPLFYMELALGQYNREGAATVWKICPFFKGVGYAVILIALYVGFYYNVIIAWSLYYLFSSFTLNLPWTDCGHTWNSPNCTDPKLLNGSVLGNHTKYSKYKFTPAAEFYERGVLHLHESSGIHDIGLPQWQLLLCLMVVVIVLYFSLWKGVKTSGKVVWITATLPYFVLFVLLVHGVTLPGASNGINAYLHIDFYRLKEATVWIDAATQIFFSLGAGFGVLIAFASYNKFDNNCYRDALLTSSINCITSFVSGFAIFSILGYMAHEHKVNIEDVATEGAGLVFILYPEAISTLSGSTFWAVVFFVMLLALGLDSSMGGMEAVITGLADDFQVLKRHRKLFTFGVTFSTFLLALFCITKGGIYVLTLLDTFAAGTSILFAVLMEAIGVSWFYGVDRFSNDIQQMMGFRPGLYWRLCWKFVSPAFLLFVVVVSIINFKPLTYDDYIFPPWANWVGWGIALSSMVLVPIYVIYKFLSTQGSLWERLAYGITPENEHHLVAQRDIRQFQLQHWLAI
# NMDAR2A, sequence (Q12879 23-1464, other chains not shown): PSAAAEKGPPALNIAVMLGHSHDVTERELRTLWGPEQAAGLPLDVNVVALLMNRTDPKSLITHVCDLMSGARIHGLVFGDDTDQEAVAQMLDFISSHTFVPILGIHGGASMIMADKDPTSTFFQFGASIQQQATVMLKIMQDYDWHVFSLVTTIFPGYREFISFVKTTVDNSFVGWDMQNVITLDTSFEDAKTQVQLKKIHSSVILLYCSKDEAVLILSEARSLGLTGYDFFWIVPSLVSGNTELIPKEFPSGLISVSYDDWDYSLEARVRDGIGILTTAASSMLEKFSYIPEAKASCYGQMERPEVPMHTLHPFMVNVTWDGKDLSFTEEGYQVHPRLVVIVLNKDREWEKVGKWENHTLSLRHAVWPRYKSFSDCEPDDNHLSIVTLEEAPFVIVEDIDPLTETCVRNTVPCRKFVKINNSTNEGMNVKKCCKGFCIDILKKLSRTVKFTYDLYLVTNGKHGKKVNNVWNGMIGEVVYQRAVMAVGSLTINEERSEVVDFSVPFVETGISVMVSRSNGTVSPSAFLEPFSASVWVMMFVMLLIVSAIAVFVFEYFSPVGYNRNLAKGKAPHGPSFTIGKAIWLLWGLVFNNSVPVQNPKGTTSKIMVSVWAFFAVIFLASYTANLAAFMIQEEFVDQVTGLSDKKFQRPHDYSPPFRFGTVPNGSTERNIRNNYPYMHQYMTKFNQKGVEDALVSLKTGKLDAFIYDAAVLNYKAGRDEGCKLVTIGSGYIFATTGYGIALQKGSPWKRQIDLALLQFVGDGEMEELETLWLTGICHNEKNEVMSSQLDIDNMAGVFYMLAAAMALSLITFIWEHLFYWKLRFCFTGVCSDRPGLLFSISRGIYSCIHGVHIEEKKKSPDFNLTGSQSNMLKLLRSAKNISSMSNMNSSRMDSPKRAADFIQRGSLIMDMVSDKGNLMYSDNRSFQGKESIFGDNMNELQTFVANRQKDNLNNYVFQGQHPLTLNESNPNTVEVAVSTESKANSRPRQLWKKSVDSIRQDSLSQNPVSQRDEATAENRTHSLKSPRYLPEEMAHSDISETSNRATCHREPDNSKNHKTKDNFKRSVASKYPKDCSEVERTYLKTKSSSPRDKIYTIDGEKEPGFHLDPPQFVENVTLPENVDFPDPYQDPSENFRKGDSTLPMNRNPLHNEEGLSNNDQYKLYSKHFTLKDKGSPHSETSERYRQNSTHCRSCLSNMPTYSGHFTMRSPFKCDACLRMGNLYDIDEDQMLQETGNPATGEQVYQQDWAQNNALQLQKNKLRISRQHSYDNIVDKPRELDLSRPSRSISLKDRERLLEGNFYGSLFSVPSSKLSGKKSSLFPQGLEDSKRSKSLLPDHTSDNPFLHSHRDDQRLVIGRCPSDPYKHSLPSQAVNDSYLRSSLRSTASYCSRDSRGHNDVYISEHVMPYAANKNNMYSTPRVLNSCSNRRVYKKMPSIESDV
# Dopamine transporter, sequence (Q01959 whole entry): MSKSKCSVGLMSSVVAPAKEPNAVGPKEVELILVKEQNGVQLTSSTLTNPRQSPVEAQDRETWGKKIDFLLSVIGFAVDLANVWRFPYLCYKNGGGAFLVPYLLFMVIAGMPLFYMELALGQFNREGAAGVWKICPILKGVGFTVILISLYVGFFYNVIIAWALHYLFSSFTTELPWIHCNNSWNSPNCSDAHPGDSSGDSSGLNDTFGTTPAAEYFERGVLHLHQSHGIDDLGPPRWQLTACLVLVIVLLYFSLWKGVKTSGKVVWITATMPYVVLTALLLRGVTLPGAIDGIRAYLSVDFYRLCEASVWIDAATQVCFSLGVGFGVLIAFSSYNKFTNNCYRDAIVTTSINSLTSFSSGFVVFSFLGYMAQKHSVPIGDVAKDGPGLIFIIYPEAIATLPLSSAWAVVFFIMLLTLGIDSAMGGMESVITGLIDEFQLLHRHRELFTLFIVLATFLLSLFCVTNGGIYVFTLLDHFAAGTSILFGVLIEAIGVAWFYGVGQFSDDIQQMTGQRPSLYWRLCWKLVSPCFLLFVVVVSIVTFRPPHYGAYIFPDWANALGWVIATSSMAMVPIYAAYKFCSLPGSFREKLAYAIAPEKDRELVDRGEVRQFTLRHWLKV
smiles,measurement,setting,value
"CC(C)=CCN1CCC2(C)c3cc(O)ccc3CC1C2C (single isomer, unassigned; (+)) [(+) Pentazocine, (+)-pentazocine]",IC50,"[1]; Rattus norvegicus, Hippocampal neuron, read-out: Membrane trafficking IC50 (uM)",7.6 µM
same,Functional Neuronal Phenotype,[1]; Table 11D,Antagonist
same,Drug-like properties,[2],Yes
same,Ki,"[3]; read-out: Sigma-2 Receptor Ki, Table 11D",> 5000 nM
CN(C)CC1COC(c2ccccc2)(c2ccccc2)C1 (stereo not shown) [Anavex 1-41],Other Targets: muscarinic M1-M4,[4],"(18-114 nM), Na +"
same,Ki,[5],7 nM
same,Other Targets: Na + ch2,[6],ch2 (>10 uM)
same,Ki,[7],> 10000 nM
CN(C)CC1CCOC1(c1ccccc1)c1ccccc1 (stereo not shown) [Anavex 2-73],Other Targets: muscarinic M1-M4,[4],"(3-5 uM),"
same,Ki,[5],860 nM
same,Other Targets: Na + ch2,[6],(5 uM)
same,Ki,[7],> 20000 nM
same,Other Targets: NMDAR2B,[8],NMDAR2B (8 uM
CN(C)CCN(C)CCc1ccc(Cl)c(Cl)c1 [BD1047],Selectivity other activities,[9],"D2, β3-AR"
same,Sigma 1 (Type of Activity),[5],(antagonist)
same,Ki,[10]; [24],0.9 nM
same,Ki,[10]; [25],0.9 nM
same,Ki,[10]; [26],0.9 nM
same,Max Inhibition of Abeta (%),[1],100%
same,Functional Neuronal Phenotype,[1]; Table 11C,Antagonist
same,EC50,[1]; [27],2.4 µM
same,Functional Neuronal Phenotype,[1]; Table 11D,Antagonist
same,IC50,[1]; [28],2.4 µM
same,Ki,[3]; [29],47 nM
same,Ki,[3]; [30],47 nM
same,Ki,[3]; [31],47 nM
"COCCCC/C(=N\OCCN)c1ccc(C(F)(F)F)cc1 [Fluvoxamine, fluvoxamine]",Sigma 1 (Type of Activity),[5],(agonist)
same,Ki,[10]; [24],13 nM
same,Ki,[10]; [25],13 nM
same,Ki,[10]; [26],13 nM
same,EC50,[1]; [32],2.5 µM
same,IC50,"[1]; Rattus norvegicus, Hippocampal neuron, Table 11D, read-out: Membrane trafficking IC50",2.5 µM
same,Functional Neuronal Phenotype,[1]; Table 11C,Antagonist
same,Functional Neuronal Phenotype,[1]; Table 11D,Antagonist
same,Other Targets: Adrenergic transporter,[11],transporter (299 nM
same,Other Targets: Dopamine transporter,[12],transporter (1.5 nM
same,Ki,[7],710 nM
same,Other Targets: serotonin transporter,[13],"nM), Serotonin (12"
"O=C(CCCN1CCC(O)(c2ccc(Cl)cc2)CC1)c1ccc(F)cc1 [Haloperidol, haloperidol]",Sigma 1 (Type of Activity),[5],(antagonist)
same,Max Inhibition of Abeta (%),[1],100%
same,Functional Neuronal Phenotype,[1]; Table 11C,Antagonist
same,Functional Neuronal Phenotype,[1]; Table 11D,Antagonist
same,Drug-like properties,[2],Yes
same,Effect on Abeta oligomer-induced synapse loss,[14],completely eliminated synapse loss
OCCN1CCN(CCCN2c3ccccc3C=Cc3ccccc32)CC1 [Opipramol],"Other Targets: alpha 1A, 1B",[15],"1A, 1B(200 nM)"
same,"Other Targets: 5-HT2A, B, C",[16],"5-HT2A, B, C (120 nM"
same,Ki,[5],7 nM
same,Ki,[7],56 nM
"CC(C)=CCN1CCC2(C)c3cc(O)ccc3CC1C2C (stereo not shown) [Pentazocine, pentazocine]",Other Targets: 2A (NMDAR2A),[17],"uM), 2A (2.7 uM),"
same,EC50,"[1]; Rattus norvegicus, Hippocampal neuron, read-out: Inhibition Abeta oligomer-induced Membrane Trafficking EC50 (uM)",7.6 µM
same,Functional Neuronal Phenotype,[1]; Table 11C,Antagonist
same,Ki,[3]; [33],> 5000 nM
same,Ki,[7],5000 nM
same,Other Targets: PCP,[18],PCP (2.9 uM)
same,Other Targets: NMDAR2B,[8],NMDAR2B (2.5 uM
CCC(Oc1ccc(Cl)cc1)C(=O)OC1CC2CCC(C1)N2C (stereo not shown) [SM-21],Selectivity other activities,[9],Muscarinic
same,Sigma 1 (Type of Activity),[5],(antagonist)
same,Ki,[10]; [24],1050 nM
same,Ki,[10]; [25],1050 nM
same,Ki,[10]; [26],1050 nM
same,Max Inhibition of Abeta (%),[1],65%
same,Functional Neuronal Phenotype,[1]; Table 11C,Antagonist
same,EC50,[1]; [27],2.2 µM
same,Functional Neuronal Phenotype,[1]; Table 11D,Antagonist
same,IC50,[1]; [28],2.2 µM
same,Ki,[3]; [29],145 nM
same,Ki,[3]; [30],145 nM
same,Ki,[3]; [31],145 nM
same,Abeta oligomer-induced synapse loss eliminated / recovery,[14]; b801,20%
COc1ccc(C)cc1NC(=O)OC1CC2CCCC(C1)N2CCCCCCN (stereo not shown) [SV-119],IC50,"[19]; Homo sapiens, SK-OV-3, tumor cell viability, 48 hrs",21700 ± 2900 nM
same,Action,[19]; by EC50 relative to siramesine,Full agonist
same,Caspase-3 activity induced in neurons,[20],caspase-3 activation
same,Caspase-3 activity induced in tumor cells,[21],caspase-3 activation
same,Nuclear morphology / nuclear intensity in neurons,[22],caused significant abnormal nuclear morphology
same,Ki,[10]; [24],1400 nM
same,Effect on Abeta oligomer trafficking deficits over the concentrations tested,[1],"blocks Abeta oligomer trafficking deficits at low concentrations, but causes cellular toxicity at high concentrations"
same,EC50,[1]; [32],2.6 µM
same,Functional Neuronal Phenotype,[1]; Table 11C,Agonist
same,Ki,[3]; [33],8 nM
"C[C@@H]([C@@H](O)c1ccc(O)cc1)N1CCC(Cc2ccccc2)CC1 [Threo-ifenprodil (TIF), Threo-ifenprodil]",Affinity K+ ch,[23],88 nM
same,Effect on Abeta oligomer trafficking deficits over the concentrations tested,[1],"does not cause apoptosis, affect trafficking or interfere with Abeta oligomer-induced trafficking deficits when dosed alone"
same,Max Inhibition of Abeta (%),[1],39%
same,Functional Neuronal Phenotype,[1]; Table 11C,Inactive
same,EC50,[1]; [27],> 20 µM
same,Sigma 2 type of activity,[7]; in brackets after the Ki,agonist
